{"source": "paper PMC6099617", "about": "“Synthesis of Antibacterial Nisin–Peptoid Hybrids Using Click Methodology” (Molecules : A Journal of Synthetic Chemistry and Natural …, 2018)", "key": {"[1]": {"system": "methicillin-resistant Staphylococcus aureus USA 300", "assay": "microbe, parasite or virus in culture", "conditions": "MRSA / USA300, read-out: MIC S. aureus (USA300)"}, "[2]": {"system": "S. aureus", "conditions": "had shown promising antibacterial activities; strain and reference not given; cited from earlier work"}, "[3]": {"system": "methicillin-resistant Staphylococcus aureus USA 300"}, "[4]": {"system": "epithelial HepG2 cells", "assay": "Cytotoxicity assay (alamarBlue cell viability), HepG2", "type": "cell-based", "conditions": "1 hour with compound 2–100 µM, then 24 hours", "description": "(§1) Cytotoxicity analyses were performed in 96-well plates (Costar, Fisher Scientific) using alamarBlue® (Invitrogen) for cell viability detection using a modified protocol as previously described.9 The HepG2 or HaCaT cells were grown at 37 °C, 5 % CO2 in DMEM10 high glucose supplemented with heat-inactivated foetal bovine sera (FBS, 10 %; Biosera Ltd) and penicillin/streptomycin (P/S, 1 %). Cells were counted using a Neubauer Improved Haemocytometer. Cells were seeded 1 day prior to treatment in 96 well plates at a concentration of 2 x 10^5 cells mL-1 in 100 µL of medium (2 x 10^4 cells/well). Empty wells were filled with 100 µL PBS. After 24 hours, cells were incubated with the compounds in a dilution series in triplicate from 2–100 µM (5 mM stock solutions in DMSO; untreated cells with DMSO as a negative control) in 50 µL of the media for 1 hour. Afterwards, 40 µL of medium was removed from each well before the addition of 90 µL of the media, followed by incubation for 24 hours at 37 °C, 5 % CO2. Then, 10 µL of alamarBlue® (Invitrogen) was added to each well before a 2 hour incubation prior to assessing cell viability using a fluorescent plate reader (Biotek; λex 560 nm, λem 600 nm)."}, "[5]": {"system": "HaCaT keratinocytes", "assay": "Cytotoxicity assay (alamarBlue cell viability), HaCaT", "type": "cell-based", "conditions": "1 hour with compound 2–100 µM, then 24 hours", "description": "as §1"}}, "note": "Like-named read-outs stand apart in the source and are kept apart here. Square brackets hold non-standard residues; d marks the D form. Peptide text beside a SMILES is read from it. N(4-F-Bzl)Gly = O=C(O)CNCc1ccc(F)cc1; Gly(N-2-aminoethyl) = NCCNCC(=O)O; Nspe = C[C@H](NCC(=O)O)c1ccccc1; Nlys = NCCCCNCC(=O)O", "data": [{"smiles": "CN[C@H](CC(C)C)C(=O)N[C@H]1C(=O)N[C@@H](CC(N)=O)C(=O)N[C@H]2C(=O)N[C@H]3C(=O)N[C@H](C(=O)N[C@H](C(=O)O)c4cc(O)cc(O)c4-c4cc3ccc4O)[C@H](O)c3ccc(c(Cl)c3)Oc3cc2cc(c3O[C@@H]2O[C@H](CO)[C@@H](O)[C@H](O)[C@H]2O[C@H]2C[C@](C)(N)[C@H](O)[C@H](C)O2)Oc2ccc(cc2Cl)[C@H]1O", "note": "[compound 7, Vancomycin]", "values": [{"measurement": "MIC", "setting": "[1]", "value": 1, "unit": "µM"}]}, {"smiles": "C[C@@H](c1ccccc1)N(CC(N)=O)C(=O)CN(C(=O)CN(CCCCN)C(=O)CN(Cc1ccc(F)cc1)C(=O)CN(Cc1ccc(F)cc1)C(=O)CN(CCCCN)C(=O)CN(C(=O)CN(C(=O)CN(CCCCN)C(=O)CN(Cc1ccc(F)cc1)C(=O)CN(Cc1ccc(F)cc1)C(=O)CNCCCCN)[C@@H](C)c1ccccc1)[C@@H](C)c1ccccc1)[C@@H](C)c1ccccc1", "note": "[1b, [(NLysNpfbNpfb)(NLysNspeNspe)]2] (H-[Nlys][N(4-F-Bzl)Gly][N(4-F-Bzl)Gly][Nlys][Nspe][Nspe][Nlys][N(4-F-Bzl)Gly][N(4-F-Bzl)Gly][Nlys][Nspe][Nspe]-NH2; N-terminus and C-terminus assumed)", "values": [{"measurement": "MIC against S. aureus (reason for choosing the sequences)", "setting": "[2]", "value": "below 2 µM"}, {"measurement": "MIC S. aureus (USA300)", "setting": "[3]; USA 300", "value": "2 to 4", "unit": "µM"}, {"measurement": "ED50 HepG2", "setting": "[4]", "value": 18, "unit": "µM"}, {"measurement": "ED50 HaCaT", "setting": "[5]", "value": 53, "unit": "µM"}]}, {"smiles": "C=C1NC(=O)[C@H]([C@@H](C)CC)NC(=O)[C@H](NC(=O)/C(=C/C)NC(=O)[C@@H](N)[C@@H](C)CC)CSC[C@@H](C(=O)N[C@H]2C(=O)N3CCC[C@H]3C(=O)NCC(=O)N[C@H](C(=O)N[C@@H](CCCCN)C(=O)O)CS[C@H]2C)NC(=O)[C@H](CC(C)C)NC1=O", "note": "[compound 4, Nisin[1,2,3,4,5,6,7,8,9, 10, 11, 12], reference compound]", "values": [{"measurement": "MIC S. aureus (USA300)", "setting": "[3]; MRSA USA300, CAMHB, overnight incubation 35 °C, visual inspection, duplicate", "value": "> 100", "unit": "µM"}]}, {"smiles": "C[C@@H](c1ccccc1)N(CC(N)=O)C(=O)CN(C(=O)CN(CCN)C(=O)CN(C(=O)CN(C(=O)CN(CCN)C(=O)CN(C(=O)CN(C(=O)CN(CCN)C(=O)CN(C(=O)CN(C(=O)CNCCN)[C@@H](C)c1ccccc1)[C@@H](C)c1ccccc1)[C@@H](C)c1ccccc1)[C@@H](C)c1ccccc1)[C@@H](C)c1ccccc1)[C@@H](C)c1ccccc1)[C@@H](C)c1ccccc1", "note": "[1a, (NaeNspeNspe)4] (H-[Gly(N-2-aminoethyl)][Nspe][Nspe][Gly(N-2-aminoethyl)][Nspe][Nspe][Gly(N-2-aminoethyl)][Nspe][Nspe][Gly(N-2-aminoethyl)][Nspe][Nspe]-NH2; N-terminus and C-terminus assumed)", "values": [{"measurement": "MIC against S. aureus (reason for choosing the sequences)", "setting": "[2]", "value": "below 2 µM"}, {"measurement": "MIC S. aureus (USA300)", "setting": "[3]; USA 300", "value": 2, "unit": "µM"}, {"measurement": "ED50 HepG2", "setting": "[4]", "value": 15, "unit": "µM"}, {"measurement": "ED50 HaCaT", "setting": "[5]", "value": 26, "unit": "µM"}]}]}
